Experimental data as given in publication PMC11851433, “Novel Quinazoline Derivatives Inhibit Splicing of Fungal Group II Introns” (ACS Chemical Biology, 2025).
≈ marks a conversion by molar mass, not a printed value. Like-named read-outs stand apart in the source and are kept apart here. Blank lines part the entries; values can stand above or below the compound they belong to.

Tests used:
HEK-293T cells = experiment: Cytotoxicity in HEK-293T cells (Cell Titer Glo); format: cell-based; conditions: Homo sapiens, read-out: IC50 for cell growth inhibition
Experimental: For the cytotoxicity experiments, cells were aliquoted into black 96-well plates with a clear bottom (Corning 3603), grown, treated with the inhibitors, and subjected to the Cell Titer Glo cell viability assay (Promega) as previously described.[33] All experiments were performed in triplicate.

ai5γ group II intron [1] = experiment: Radioanalytic in vitro splicing assay, splicing inhibition constants; format: biochemical, Saccharomyces cerevisiae; conditions: for improvement of inhibitory activity (Ki) relative to compound 3: vs compound 3
Experimental: Internally ^32P-labeled ai5γ intron RNA with short exons[54] was in vitro transcribed in the presence of ^32P-α-UTP using T7 RNA polymerase and purified on a 5% denaturing polyacrylamide gel as described.[55] Large-scale transcription of the […] ribozyme, utilized for HTS, was carried out as previously described.[56] Splicing inhibition constants were determined as previously described[33],[34] with the following change in the experimental procedure: reactions were carried out in a buffer of 50 mM MOPS pH 7.5, 100 mM MgCl2, and 500 mM KCl at 42 °C. Aliquots of the reaction mixture were withdrawn at different time points, quenched, and analyzed on a 5% denaturing polyacrylamide gel as previously described.[55] Inhibition constants were determined as previously described.[33],[34] Experiments were performed twice to ensure reproducibility. Data represent average ± s.e.m.

D135 ribozyme = experiment: HTS / dose–response intron activity assay (fluorescently labeled substrate, D135 ribozyme); format: biochemical, Saccharomyces cerevisiae; conditions: 10 concentrations, highest 100 μM, 1:3 serial dilution
Experimental: The RNA oligonucleotide substrate for HTS, containing the last 17 nucleotides of the native 5′-exon and the first two nucleotides of the ai5γ intron,[33] was synthesized on a MerMade 12 RNA-DNA synthesizer (BioAutomation) using TBDMS RNA phosphoramidites (TxBio), aminomodifier C6dT, and Black Hole Quencher 2 CPG (Glen Research). For base deprotection, the oligonucleotide was treated with 30% ammonium hydroxide (JT Baker) for 24 h at RT. The 2’–OH deprotection and oligonucleotide purification were carried out as described.[57],[58] Fluorescent labeling of the substrate with the NHS ester of AlexaFluor 555 was carried out as described.[33]
HTS was carried out by CRL using the fluorescently labeled substrate, unlabeled D135 ribozyme (see above), and a proprietary library of ∼1,50,000 compounds using assay conditions previously described,[33] with the following adaptations. The D135 ribozyme (20 nM final concentration) was first prefolded in a buffer of 50 mM MOPS, pH 7.5, 50 mM MgCl2, and 500 mM KCl at 37 °C for 30 min. Library compounds were then added at 12.5 μM final concentration followed by addition of the substrate (to 15 nM final concentration), and the reaction mixtures were incubated at 37 °C for 40 min. Reactions were was quenched by addition of urea (2.67 M final) and analyzed as described. […]

C. parapsilosis = experiment: MIC determination for C. parapsilosis (CLSI M27-A3); format: cell-based, Candida parapsilosis; conditions: for MIC C. parapsilosis: Supplementary table 1; for MIC: Lodderomyces parapsilosis
Experimental: C. parapsilosis [strain American Type Culture Collection (ATCC) 22019] was purchased from ATCC and cultured according to the manufacturer’s instructions. S. cerevisiae wild-type (NP40-36a) and mtDNA intronless (XPM46) strains were a gift from Dr. Thomas Fox (Dept. of Molecular Biology and Genetics, Cornell University).[44] MICs for C. parapsilosis were determined as previously described[33] according to the guidelines from the protocol M27-A3 from the Clinical and Laboratory Standards Institute (CLSI).[59] All experiments were performed in triplicate.

WT S. cerevisiae strain = experiment: Inhibition of S. cerevisiae growth, WT strain; format: cell-based, Saccharomyces cerevisiae
Experimental: (§1) C. parapsilosis [strain American Type Culture Collection (ATCC) 22019] was purchased from ATCC and cultured according to the manufacturer’s instructions. S. cerevisiae wild-type (NP40-36a) and mtDNA intronless (XPM46) strains were a gift from Dr. Thomas Fox (Dept. of Molecular Biology and Genetics, Cornell University).[44]
(§2) Reduction of yeast growth in the presence of inhibitor molecules was assayed either in liquid YPD media (BD Bacto Yeast Extract, BD Bacto Peptone, 2% glucose) or in YPG media (BD Bacto Yeast Extract, BD Bacto Peptone, 3% glycerol), as previously described[33],[34],[59] with the following adaptations. Yeast cultures were grown for 24 h in YPD medium and for […] in YPG medium. All experiments were performed in triplicate to ensure reproducibility.

[2] = system: COX1 intronless S. cerevisiae strain; experiment: Inhibition of S. cerevisiae growth, COX1 intronless strain; format: cell-based, Saccharomyces cerevisiae
Experimental: as §1, §2

[3] = system: C. parapsilosis COX1 precursor mRNA splicing; experiment: In cellulo analysis of group II intron splicing by qRT-PCR; format: cell-based, Candida parapsilosis; conditions: compound 64 μg/mL, PGK1 as standard
Experimental: C. parapsilosis (ATCC: 22019) growth and harvest was performed essentially as described[33] with the following modifications. Compounds dissolved in DMSO were added to individual cultures to a final concentration of 64 μg/mL. Total RNA was isolated using an E.Z.N.A Fungal RNA Mini Kit (Omega Bio-tek) according to the manufacturer’s protocol. The RNA was eluted in 50 μL of a 1:100 mixture of SUPERaseIn RNase inhibitor (Thermo Fisher): MOPS-EDTA (ME) buffer [10 mM MOPS (pH 6.5), 0.1 mM Na-EDTA (pH 8.5)] followed by DNase treatment with RQ1 DNase (Promega) for 30 min at 37 °C. Then, the reaction was mixed with 7 μL of 3 M NaOAc and precipitated with 80% EtOH at –20 °C. The recovered RNA was resuspended in 30 μL of 1:100 mixture of SUPERaseIn RNase inhibitor/ME buffer. Next, 200 ng of Random Hexamer Primers (Thermo Fisher) was annealed to 10 ng of RNA in 11 μL at 65 °C for 5 min. The annealing reaction mixture was then cooled to RT, followed by the addition of 9 μL of a SuperScript III (Thermo Fisher) master mix: 1X First Strand Synthesis Buffer, 0.5 mM dNTPs (NEB: N0447S), 5 mM DTT, 10U SUPERaseIn RNase inhibitor, and 100 U SuperScript III. Manufacturer reverse transcription conditions were used, followed by an inactivation step at 75 °C for 15 min. After reverse transcription, RNA was degraded by adding 1.5 μL of a 1:1:1 mixture of RNase H (NEB), RNase A (NEB), and RNase T1 (Thermo Fisher) and incubating at 37 °C for 30 min. The cDNA was then purified using AMPure beads (Beckman Coulter) at a 1.8× bead-to-sample ratio according to the manufacturer’s protocol. Purified cDNA was eluted in 30 μL of nuclease-free water. Real-time PCR quantification of cDNA and subsequent determination of the relative levels of PGK1, COX1 (total), and COX1 (unspliced) from different conditions were performed in duplicate with three independent samples as previously described.[33]

ai5γ group II intron [4] = target: ai5γ group II intron; set-up: method as in PMID 30323219; conditions: for comparison; read-out: Ki of previously published inhibitors; cited from earlier work
[5] = system: C. parapsilosis COX1 precursor mRNA splicing; set-up: method as in PMID 30323219; conditions: for comparison; cited from earlier work
[6] = Figure 3, 100 mM MgCl2, 500 mM KCl, 42 °C, read-out: Ki for the in vitro splicing of the ai5γ intron
[7] = Supplementary table 1, read-out: Ki ai5γ intron

SMILES: C[C@@H]1[C@H](O)[C@@H](C)/C=C/C=C/C=C/C=C/C=C/C=C/C=C/[C@H](O[C@@H]2O[C@H](C)[C@@H](O)[C@H](N)[C@@H]2O)C[C@@H]2O[C@](O)(C[C@@H](O)C[C@@H](O)[C@H](O)CC[C@@H](O)C[C@@H](O)CC(=O)O[C@H]1C)C[C@H](O)[C@H]2C(=O)O [amphotericin B, reference compound]
IC50 (HEK-293T cells): 2.6 ± 0.2 µg/mL (≈ 2.81 µM)

SMILES: COc1ccc(Nc2nc(-c3ccccn3)nc3ccccc23)cc1 [compound 1]
Ki (ai5γ group II intron [1]; [6]): 27 ± 6 µM
IC50 (D135 ribozyme): 3 µM

SMILES: COc1cccc(CNc2ncnc3ccccc23)c1 [compound 5]
Ki (ai5γ group II intron [1]; [7]): > 100 µM
MIC C. parapsilosis (C. parapsilosis): 16 µg/mL (≈ 60.3 µM)

SMILES: c1ccc(CNc2ncnc3ccccc23)cc1 [compound 7]
Ki (ai5γ group II intron [1]; [7]): > 100 µM

SMILES: c1ccc(-c2nc(Nc3ccc4c(c3)OCO4)c3ccccc3n2)nc1 [compound 12]
Ki (ai5γ group II intron [1]; [7]): 11 ± 2 µM
increase in inhibitory activity relative to compound 1 (ai5γ group II intron [1]; vs compound 1): 3 fold

SMILES: c1ccc(-c2nc(N3Cc4ccccc4C3)c3ccccc3n2)nc1 [compound 14]
Ki (ai5γ group II intron [1]; [7]): 7.6 ± 1.7 µM
growth inhibition of WT vs COX1 intronless S. cerevisiae strain (WT S. cerevisiae strain; WT more strongly inhibited than intronless strain): eight-fold
MIC S. cerevisiae WT strain (WT S. cerevisiae strain; WT strain): 4 µg/mL (≈ 12.3 µM)
MIC S. cerevisiae intronless strain [2]: 32 µg/mL (≈ 98.6 µM)

SMILES: FC(F)(F)c1cccc(CNc2nc(-c3ccccn3)nc3ccccc23)c1 [compound 16]
effect on splicing of C. parapsilosis COX1 (unspliced relative to total COX1 mRNA) [3]: moderate defects
Ki (ai5γ group II intron [1]; [7]): 5.6 ± 0.6 µM
improvement of inhibitory activity (Ki) relative to compound 3 (ai5γ group II intron [1]): more than 10 fold
IC50 (HEK-293T cells): 5.6 ± 0.1 µg/mL (≈ 14.7 µM)
MIC (WT S. cerevisiae strain; Saccharomyces cerevisiae): 16 µg/mL (≈ 42.1 µM)
MIC ([2]; Saccharomyces cerevisiae): 64 µg/mL (≈ 168 µM)
MIC in C. parapsilosis (C. parapsilosis): 4 µg/mL (≈ 10.5 µM)
MIC (C. parapsilosis): 2 to 8 µg/mL (≈ 5.26 to 21 µM)

SMILES: Clc1cccc(CNc2nc(-c3ccccn3)nc3cc(Cl)ccc23)c1 [compound 19]
effect on splicing of C. parapsilosis COX1 (unspliced relative to total COX1 mRNA) [3]: remained unchanged
Ki (ai5γ group II intron [1]; [6]): 1.4 ± 0.4 µM

SMILES: CC(=O)c1ccc(-c2ccc3oc(C(=O)c4cc(O)c(O)c(O)c4)cc3c2)cc1 [intronistat A]
Ki (ai5γ group II intron [4]): 2.1 ± 0.2 µM

SMILES: O=C(NCCN1CCCC1)c1ccc2oc(C(=O)c3cc(O)c(O)c(O)c3)cc2c1 [intronistat B]
Ki (ai5γ group II intron [4]): 0.36 ± 0.02 µM
levels of unspliced vs total C. parapsilosis COX1 transcripts [5]: 1.5 fold

Continued, in another order:

Ki (ai5γ group II intron [1]; [7]): 55 ± 19 µM
MIC C. parapsilosis (C. parapsilosis): > 128 µg/mL
SMILES: COc1cccc(CNc2nc(-c3ccccn3)nc3ccccc23)c1 [compound 2]

Ki (ai5γ group II intron [1]; [7]): 77 ± 25 µM
SMILES: c1ccc(CNc2nc(-c3ccccn3)nc3ccccc23)cc1 [compound 3]

Ki (ai5γ group II intron [1]; [7]): > 100 µM
SMILES: COc1ccc(Nc2ncnc3ccccc23)cc1 [compound 4]

Ki (ai5γ group II intron [1]; [7]): > 100 µM
SMILES: c1ccc(Nc2ncnc3ccccc23)cc1 [compound 6]

Ki (ai5γ group II intron [1]; [7]): > 100 µM
SMILES: Nc1nc(-c2ccccn2)nc2ccccc12 [compound 8]

Ki (ai5γ group II intron [1]; [7]): > 100 µM
SMILES: c1ccc(-c2ncc3ccccc3n2)nc1 [compound 9]

Ki (ai5γ group II intron [1]; [7]): 11 ± 2 µM
MIC (C. parapsilosis): 2 to 8 µg/mL (≈ 5.64 to 22.6 µM)
SMILES: CC(C)(C)c1ccc(Nc2nc(-c3ccccn3)nc3ccccc23)cc1 [compound 10]

Ki (ai5γ group II intron [1]; [7]): > 100 µM
SMILES: CC(C)(C)c1ccc(Nc2nc(-c3ccncc3)nc3ccccc23)cc1 [compound 11]
inhibitory activity in the splicing assay (in words) (ai5γ group II intron [1]): completely abolishes activity

Ki (ai5γ group II intron [1]; [7]): 6.4 ± 1.9 µM
improvement of inhibitory activity (Ki) relative to compound 3 (ai5γ group II intron [1]): more than 10 fold
SMILES: CC(C)(C)c1cccc(CNc2nc(-c3ccccn3)nc3ccccc23)c1 [compound 15]

Ki (ai5γ group II intron [1]; [7]): 2.6 ± 0.5 µM
improvement of inhibitory activity (Ki) relative to compound 3 (ai5γ group II intron [1]): 30 fold
MIC in C. parapsilosis (C. parapsilosis): 2 µg/mL (≈ 5.77 µM)
MIC (C. parapsilosis): 2 to 8 µg/mL (≈ 5.77 to 23.1 µM)
SMILES: Clc1cccc(CNc2nc(-c3ccccn3)nc3ccccc23)c1 [compound 17]
effect on splicing of C. parapsilosis COX1 (unspliced relative to total COX1 mRNA) [3]: moderate defects
IC50 (HEK-293T cells): 3.9 ± 0.1 µg/mL (≈ 11.2 µM)

Ki (ai5γ group II intron [1]; [7]): 20 ± 6 µM
SMILES: FC(F)(F)c1cccc(CNc2nc(-c3ccccn3)nc3cc(Cl)ccc23)c1 [compound 18]
drop in inhibitory activity relative to compound 16 (ai5γ group II intron [1]; vs compound 16): four-fold
